Test results from US12521381B2, “Anticoccidial agent and method for using the same” (NIHON NOHYAKU CO., LTD., priority 2020, dated 2026).

Tested on: chicken coccidium (Eimeria tenella)
Assay: Evaluation test of growth inhibition on chicken coccidium (Eimeria tenella)
Type: cell-based
Conditions: 48 h, mammal cells infected with sporozoite of chicken coccidium, indirect immunofluorescence, read-out: EC50 (inhibition of growth of chicken coccidium to a mature schizont)
Procedure: Test Example 1: Evaluation Test of Growth Inhibition on Chicken Coccidium (Eimeria tenella) Each of the benzimidazole compounds represented by General Formula (1) or salts of the compounds according to the present invention was diluted with a regulating liquid to a predetermined concentration and placed in a microtiter plate. To the dilution in the plate, mammal cells infected with a sporozoite of chicken coccidium were incubated. Forty-eight hours later, the degree of inhibition on growth of chicken coccidium to a mature schizont was examined by an indirect immunofluorescence technique, and EC50 was determined by calculation.

FC(F)(F)C(F)(F)COc1ccc(-c2nc3cc(Br)c(Br)cc3[nH]2)cn1 [Compound 11-5, 5,6-dibromo-2-(6-(2,2,3,3,3-pentafluoropropoxy)pyrid-3-yl)benzimidazole]
EC50: ≤ 20 µM
